Assays:
[1] = target: T1, NR1/NR2A ionotropic receptor (Homo sapiens, UniProt Q05586+Q12879); experiment: ScreenPatch IonWorks Barracuda electrophysiology assay on NR1/NR2A; assay type: cell-based
T1 construct: expressed in transfected cells
Procedure: (§1) Test articles were evaluated for functional effects on ion channels.
(§2) The final DMSO concentration was 0.6%.
(§3) Adjusted to pH 7.2 with CsOH.

[2] = target: T2, NR1/NR2B ionotropic receptor (Homo sapiens, UniProt Q05586+Q13224); experiment: ScreenPatch IonWorks Barracuda electrophysiology assay on NR1/NR2B; assay type: cell-based; settings: for relative inhibition of NR2B: comparison of enantiomers and racemate, words
T2 construct: expressed in transfected cells
T2 sequence (Q13224 27-1484, other chains not shown): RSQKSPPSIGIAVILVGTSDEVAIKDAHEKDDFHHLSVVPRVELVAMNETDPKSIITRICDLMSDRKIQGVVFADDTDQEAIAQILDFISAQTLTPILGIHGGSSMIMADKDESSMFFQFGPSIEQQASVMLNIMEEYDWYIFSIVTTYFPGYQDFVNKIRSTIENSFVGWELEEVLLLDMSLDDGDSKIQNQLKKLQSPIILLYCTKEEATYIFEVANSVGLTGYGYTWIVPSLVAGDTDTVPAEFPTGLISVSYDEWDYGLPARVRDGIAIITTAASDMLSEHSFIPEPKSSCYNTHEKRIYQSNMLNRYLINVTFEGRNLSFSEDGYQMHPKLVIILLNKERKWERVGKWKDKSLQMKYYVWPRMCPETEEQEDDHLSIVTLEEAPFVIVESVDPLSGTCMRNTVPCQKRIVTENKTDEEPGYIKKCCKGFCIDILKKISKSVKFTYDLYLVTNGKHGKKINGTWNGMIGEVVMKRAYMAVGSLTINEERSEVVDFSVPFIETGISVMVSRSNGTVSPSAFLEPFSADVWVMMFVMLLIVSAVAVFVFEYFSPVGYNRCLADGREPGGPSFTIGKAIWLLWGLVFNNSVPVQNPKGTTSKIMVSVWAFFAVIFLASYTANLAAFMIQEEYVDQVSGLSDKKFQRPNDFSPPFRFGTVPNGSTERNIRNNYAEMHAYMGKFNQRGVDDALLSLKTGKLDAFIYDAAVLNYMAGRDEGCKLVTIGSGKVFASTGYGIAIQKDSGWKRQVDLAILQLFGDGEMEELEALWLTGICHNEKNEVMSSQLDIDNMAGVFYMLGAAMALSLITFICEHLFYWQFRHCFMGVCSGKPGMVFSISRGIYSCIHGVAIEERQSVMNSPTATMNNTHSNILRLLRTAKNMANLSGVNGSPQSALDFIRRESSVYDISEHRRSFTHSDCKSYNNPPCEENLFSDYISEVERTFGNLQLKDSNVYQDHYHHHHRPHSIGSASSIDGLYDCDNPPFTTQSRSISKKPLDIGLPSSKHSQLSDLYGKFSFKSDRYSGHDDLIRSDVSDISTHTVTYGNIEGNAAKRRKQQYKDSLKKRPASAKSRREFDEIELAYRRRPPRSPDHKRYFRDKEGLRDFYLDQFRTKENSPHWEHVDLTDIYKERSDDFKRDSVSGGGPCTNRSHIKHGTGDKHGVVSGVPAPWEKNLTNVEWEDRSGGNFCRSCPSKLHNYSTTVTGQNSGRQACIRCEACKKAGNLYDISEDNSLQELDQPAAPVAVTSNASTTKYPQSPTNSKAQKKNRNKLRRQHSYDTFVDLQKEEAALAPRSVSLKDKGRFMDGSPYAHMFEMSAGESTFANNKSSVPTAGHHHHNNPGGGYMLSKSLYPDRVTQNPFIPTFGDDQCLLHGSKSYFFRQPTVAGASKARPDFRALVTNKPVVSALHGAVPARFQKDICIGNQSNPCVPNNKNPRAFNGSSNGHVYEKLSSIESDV
Procedure: as §1, §2, §3

tumor = experiment: mouse cancer models, general anti-tumor activity; assay type: in vivo; settings: alone
[3] = system: B16-OVA cells / B3Z cells; experiment: B3Z activation assay, recognition of OVA model tumor antigen on B16-OVA cells; assay type: cell-based; settings: B16-OVA cells treated (100 μM, 24 hours) then B3Z co-culture 24 h; read-out: increase in recognition of model tumor antigen by B3Z cells
Procedure: B16-OVA cells are seeded into a 96-well plate and treated with 100 μM […], […] or racemic rimantadine for 24 hours, prior to addition of B3Z cells. After 24 hours of co-culture, medium is removed and 100 μl of lysis buffer [0.155 mM chlorophenol red β-D-galactopyranoside (CPRG) (Roche), 0.125% Nonidet P-40 Alternative (EMDCalbiochem), and 9 mM MgCl2 (Sigma) in PBS] are added. After incubation for 4 hours at 37 °C, the absorbance at 570 nm is determined on a TECAN infinite M200 microplate reader.

AT-84-E7 = experiment: BrdU incorporation / cell proliferation assay in AT-84-E7; assay type: cell-based; settings: for G0/G1 cell cycle arrest / S phase: BrdU, alone
Procedure: (§4) [LEFT OUT]. Louis, MO) (27).
(§5) Cell cycle progression was analyzed on the basis of BrdU incorporation following […] cell staining with BrdU-APC and 7-AAD using BD Pharmingen BrdU Flow Kit. (BD, Franklin Lakes, NJ) according to the manufacture's protocol. Cells are analyzed using flow cytometry. Cell proliferation is assessed by using MTT [3-(4,5-dimethylthiazol-2-yl)-2,5-diphenyltetrazolium bromide]. First, cells are seeded in 96-well plate and cultured for 2-3 days. Next, culture media is replaced with fresh media containing 0.5 mg/ml of MTT (Sigma) and the plates are incubated for 4 hours at 37 °C. Then, purple formazan crystals are dissolved in lysis buffer (4 mM HCl and 0.1% NP-40 in isopropanol) and the absorbance is recorded on a TECAN infiniteM200 microplate reader (Tecan, Männedorf, Switzerland) at a wavelength of 570 nm with absorbance at 650 nm as reference.

B16-OVA = experiment: BrdU incorporation / cell proliferation assay in B16-OVA; assay type: cell-based; settings: for G0/G1 cell cycle arrest / S phase: BrdU, alone
Procedure: as §4, §5

Stathmin = experiment: RTqPCR gene expression of Stathmin; assay type: cell-based
Procedure: (§6) Total RNA is extracted using TRIzol Reagent (Invitrogen) and reverse transcribed with qScript cDNA Synthesis Kit (Quanta BioSciences, Beverly, MA) according to the manufacturer's instructions. Quantitative PCR analysis is conducted by using KAPA SYBR […] FAST (KAPA Biosystems, Wilmington, MA) on the 7900HT Fast Real-Time PCR System (Applied Biosystems, Foster City, CA).

Tau = experiment: RTqPCR gene expression of Tau; assay type: cell-based
Procedure: as §6

[4] = system: murine and human cell lines engineered to express HPV16 E5; experiment: cell cycle arrest in cell lines engineered to express HPV16 E5; assay type: cell-based; settings: cells expressing HPV16 E5
Procedure: as §5

[5] = system: glutamate, GABA, dopamine receptors; experiment: in vivo SPECT receptor binding selectivity (Examples 4 and 5); set-up: species or system mouse
[6] = in vivo CNS adverse effects / toxicity (Examples 4 and 5); set-up: species or system mouse
M2 transmembrane channel = settings: cited from earlier work
B16-OVA tumor = experiment: mouse tumor model B16-OVA, IP treatment; settings: in combination with anti-PDL1 immunotherapy; B16-OVA tumors
MHC class I = MHC class I surface expression on RAW264.7
MHC class II = MHC class II surface expression on RAW264.7
MHC I = settings: E5-positive AT-84-E7
MHC = experiment: surface expression of MHC (flow cytometry), multiple cell lines
CAL-27 = experiment: BrdU incorporation and proliferation assays in CAL-27; assay type: cell-based, human; settings: alone
Procedure: as §4, §5

CAL-33 = experiment: BrdU incorporation and proliferation assays in CAL-33; assay type: cell-based, human; settings: alone
Procedure: as §4, §5

SCC-47 = experiment: BrdU incorporation and proliferation assays in SCC-47; assay type: cell-based, human; settings: alone
Procedure: as §4, §5

CAL-27 cells = experiment: CAL-27 in vitro MTT proliferation assay; assay type: cell-based, human; settings: 0, 100, 250 or 500 μM, 24 or 48 hours
Procedure: On day 1, CAL-27 cells were seeded in a 96-well plate (2-4×10^3 cells/well, medium 100 μl/well) and left overnight to allow the cells to attach to the plate. On day 2, varying concentrations of rimantadine (0 μM, 100 μM, 250 μM, or 500 μM) were added to the cells and allowed to incubate for 24 hours or 48 hours. On either day 3 or 4, the culture media was aspirated, and 100 μl/well of MTT solution (comprising an MTT concentration of 0.5 mg/ml; formed by dilution of thiazolyl blue tetrazolium bromide solution (SIGMA, Cat #M2128) with stock solution (5 mg/ml in PBS (−20 °C)) was added to the culture media. The cells were incubated in a CO2 incubator at 37 °C for 3 hours, and the MTT solution was aspirated. 100 μl/well of DMSO was then added and the cells were incubated for about 5 minutes. A OD570 nm (Ref 650 nm) was then read. Results of the experiment are shown in FIG. 2.

D2/3 dopamine receptor = settings: radioligand; cited from earlier work
[7] = cited from earlier work
[8] = agonist format, first application, data not shown

T1 sequence (Q12879 23-1464, other chains not shown): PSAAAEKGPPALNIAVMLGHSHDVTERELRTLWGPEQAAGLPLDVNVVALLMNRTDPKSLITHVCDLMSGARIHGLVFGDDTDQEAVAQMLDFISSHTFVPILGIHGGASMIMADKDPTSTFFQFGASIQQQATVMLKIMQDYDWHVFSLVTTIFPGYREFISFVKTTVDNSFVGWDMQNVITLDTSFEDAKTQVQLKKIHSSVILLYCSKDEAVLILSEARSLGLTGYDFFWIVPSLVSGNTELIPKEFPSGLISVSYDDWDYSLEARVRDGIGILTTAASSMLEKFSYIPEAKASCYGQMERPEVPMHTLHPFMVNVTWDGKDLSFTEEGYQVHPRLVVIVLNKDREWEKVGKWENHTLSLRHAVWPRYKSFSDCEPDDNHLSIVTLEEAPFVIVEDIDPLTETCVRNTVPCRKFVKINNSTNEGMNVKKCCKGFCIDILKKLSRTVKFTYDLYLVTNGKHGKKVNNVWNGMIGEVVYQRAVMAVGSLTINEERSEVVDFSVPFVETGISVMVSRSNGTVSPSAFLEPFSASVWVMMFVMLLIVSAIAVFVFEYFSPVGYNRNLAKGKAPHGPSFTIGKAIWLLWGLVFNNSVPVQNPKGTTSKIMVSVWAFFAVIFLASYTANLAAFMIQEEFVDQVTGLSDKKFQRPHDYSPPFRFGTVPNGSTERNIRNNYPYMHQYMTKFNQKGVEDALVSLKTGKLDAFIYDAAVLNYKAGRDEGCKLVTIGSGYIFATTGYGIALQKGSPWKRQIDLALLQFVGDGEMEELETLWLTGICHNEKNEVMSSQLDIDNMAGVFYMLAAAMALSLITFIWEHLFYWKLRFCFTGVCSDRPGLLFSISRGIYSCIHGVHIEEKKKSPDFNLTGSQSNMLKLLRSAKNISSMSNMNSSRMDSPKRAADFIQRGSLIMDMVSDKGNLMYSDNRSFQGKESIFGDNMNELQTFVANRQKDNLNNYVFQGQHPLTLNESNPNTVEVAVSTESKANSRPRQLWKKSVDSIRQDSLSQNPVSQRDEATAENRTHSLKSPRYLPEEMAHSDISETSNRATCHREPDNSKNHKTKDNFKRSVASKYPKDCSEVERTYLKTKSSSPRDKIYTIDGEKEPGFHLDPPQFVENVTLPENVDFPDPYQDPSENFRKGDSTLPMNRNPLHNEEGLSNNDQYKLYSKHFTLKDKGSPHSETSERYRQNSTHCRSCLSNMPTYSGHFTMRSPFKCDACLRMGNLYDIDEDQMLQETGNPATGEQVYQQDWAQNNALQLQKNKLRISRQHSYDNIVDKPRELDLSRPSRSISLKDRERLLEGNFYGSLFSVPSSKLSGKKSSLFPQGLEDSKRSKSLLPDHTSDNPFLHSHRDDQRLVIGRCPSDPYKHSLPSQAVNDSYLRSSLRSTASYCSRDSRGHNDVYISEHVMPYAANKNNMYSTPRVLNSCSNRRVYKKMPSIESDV

SMILES	relative inhibition of NR2B [2]	anti-tumor activity (tumor)	fold induction at 100 µM [3]	cell proliferation (AT-84-E7)	G0/G1 cell cycle arrest (AT-84-E7)	S phase (AT-84-E7)	cell proliferation (B16-OVA)	G0/G1 cell cycle arrest (B16-OVA)	S phase (B16-OVA)	Stathmin gene expression (Stathmin)	Tau gene expression (Tau)	cell cycle arrest [4]	survival (B16-OVA tumor)	MHC class I surface expression (MHC class I)	MHC class II surface expression (MHC class II)	cell surface expression of MHC I (MHC I)	surface expression of MHC (MHC)	other results
NC12CC3CC(CC(C3)C1)C2 [Amantadine]	–	–	–	–	–	–	–	–	–	–	–	–	–	–	–	–	–	agonist effect: activation of NMDA receptors [1, 8]: Neither test articles nor amantadine had produced significant activation of NMDA receptors; shift in potency for steady state vs peak currents ([1]; suggests open channel block mechanism of inhibition): Leftward shift in amantadine potency for steady state currents measurements; agonist effect: activation of NMDA receptors [2, 8]: Neither test articles nor amantadine had produced significant activation of NMDA receptors
C[C@@H](N)C12CC3CC(CC(C3)C1)C2 [2-R rimantadine]	greater ability to inhibit NR2B as compared to racemic rimantadine	significantly decreased tumor growth	3	Suppression of cell proliferation	significant increases in G0/G1 cell cycle arrest	significant decreases in S phase	Suppression of cell proliferation	significant increases in G0/G1 cell cycle arrest	significant decreases in S phase	significant decreases	Decreases in microtubule associated molecule Tau	induce cell cycle arrest	significant improvement in survival	significant increases	significant increases	restored	Significant increases in surface expression of MHC	binding selectivity or agonistic behavior to glutamate, GABA, dopamine receptors ([5]; Example 4, 10-20 mg/kg IP daily 7 days): significantly higher binding selectivity or agonistic behavior; incidence of central nervous system adverse effects ([6]; Example 4): higher incidence of central nervous system adverse effects; binding affinity for M2 channel pore (M2 transmembrane channel; one study, R- vs S-enantiomer): greater affinity than the S-enantiomer
CC(N)C12CC3CC(CC(C3)C1)C2 (stereo not shown) [rimantadine]	–	–	–	–	–	–	–	–	–	–	–	–	–	–	–	–	–	cell cycle arrest (CAL-27): Significant cell cycle arrest; proliferation (CAL-27): decreased proliferation; cell cycle arrest (CAL-33): Significant cell cycle arrest; proliferation (CAL-33): decreased proliferation; cell cycle arrest (SCC-47): Significant cell cycle arrest; proliferation (SCC-47): decreased proliferation; inhibition of influenza activity (M2 transmembrane channel; by binding M2 transmembrane channel and blocking proton transport): inhibits influenza activity
C[C@H](N)C12CC3CC(CC(C3)C1)C2 [2-S rimantadine]	to a lesser degree as compared to 2-R rimantadine and racemic rimantadine	significantly decreased tumor growth	3	Suppression of cell proliferation	significant increases in G0/G1 cell cycle arrest	significant decreases in S phase	Suppression of cell proliferation	significant increases in G0/G1 cell cycle arrest	significant decreases in S phase	significant decreases	Decreases in microtubule associated molecule Tau	induce cell cycle arrest	significant improvement in survival	significant increases	significant increases	restored	Significant increases in surface expression of MHC	binding selectivity or agonistic behavior to glutamate, GABA, dopamine receptors ([5]; Example 5, 10-20 mg/kg IP daily 7 days): significantly higher binding selectivity or agonistic behavior; toxicity compared to 2-R rimantadine ([6]; Example 4, taken together with Example 2): significantly less toxic; incidence of central nervous system adverse effects ([6]; Example 5): higher incidence of central nervous system adverse effects; toxicity compared to 2-R rimantadine ([6]; Example 5, taken together with Example 2): significantly less toxic; cancer cell proliferation compared to R-rimantadine or racemic rimantadine (CAL-27 cells): enhanced or equivalent cancer cell proliferation as compared to R-rimantadine or racemic rimantadine
CCN1CCC[C@H]1CNC(=O)c1c(OC)ccc(I)c1O [IBZM]	–	–	–	–	–	–	–	–	–	–	–	–	–	–	–	–	–	affinity for the D2/3 dopamine receptor (D2/3 dopamine receptor): high affinity
CC(N)C12CC3CC(CC(C3)C1)C2 (racemic) [racemic rimantadine]	–	–	–	–	–	–	–	–	–	–	–	–	–	–	–	–	–	side effects ([7]; currently prescribed doses): central nervous system (CNS) side effects, sleep side effects, gastrointestinal side effects, and atropinic side effects; most commonly cited toxicities for discontinuation of treatment ([7]; in vivo): Anxiety and insomnia

— patent publication US20260347309A1 (priority 2022, published 2026)
